According to the supplement of paper PMC10307832:

Legend:
Assay in all cases: relative viability (nuclei count vs DMSO), 5 days (fraction); higher = more cells survive
[1] = compound: C1CC(C1)(C(=O)O)C(=O)O.[NH2-].[NH2-].[Pt+2] [Carboplatin] + C[C@@H](Oc1cc(-c2cnn(C3CCNCC3)c2)cnc1N)c1c(Cl)ccc(F)c1Cl [Crizotinib] (partner 1 µM)
Outline: (§1)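 Relative viability was taken as the ratio of nuclei in treated wells to nuclei in vehicle wells. Lung cancer cell lines in 1536-well plates received compounds by pin tool one day after seeding, either one drug alone or a fixed anchor-drug dose plus five library-drug doses (not always all listed) in √10 steps. Nuclei were counted on 4× images after 5 days of treatment, and values are medians of duplicate plates.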

[2] = compound: CC[C@H](C)N1C=C(C2=C(C=C(C=C21)C3=CN=C(C=C3)N4CCNCC4)C(=O)NCC5=C(C=C(NC5=O)C)C)C [GSK126] + Cc1nc(Nc2ncc(C(=O)Nc3c(C)cccc3Cl)s2)cc(N2CCN(CCO)CC2)n1 [Dasatinib] (partner 0.075 µM)
Outline: as §1

[3] = compound: C1CC(C1)(C(=O)O)C(=O)O.[NH2-].[NH2-].[Pt+2] [Carboplatin] + N=C(N)NC(=N)NCCc1ccccc1 [Phenformin] (partner 250 µM)
Outline: as §1

[4] = compound: NS(=O)(=O)OC[C@@H]1C[C@@H](n2ccc3c(N[C@H]4CCc5ccccc54)ncnc32)C[C@@H]1O [MLN4924] + CC(C)C[C@H](NC(=O)[C@H](Cc1ccccc1)NC(=O)c1cnccn1)B(O)O [Bortezomib] (partner 0.002 µM)
Outline: as §1

| Cell Line | relative viability ([1]; first compound 0.08 µM) | relative viability ([1]; first compound 0.253 µM) | relative viability ([1]; first compound 0.8 µM) | relative viability ([1]; first compound 2.53 µM) | relative viability ([1]; first compound 8 µM) | relative viability ([2]; first compound 0.08 µM) | relative viability ([2]; first compound 0.253 µM) | relative viability ([2]; first compound 0.8 µM) | relative viability ([2]; first compound 2.53 µM) | relative viability ([2]; first compound 8 µM) | relative viability ([3]; first compound 0.08 µM) | relative viability ([3]; first compound 0.253 µM) | relative viability ([3]; first compound 0.8 µM) | relative viability ([3]; first compound 2.53 µM) | relative viability ([3]; first compound 8 µM) | relative viability ([4]; first compound 0.04 µM) | relative viability ([4]; first compound 0.1265 µM) | relative viability ([4]; first compound 0.4 µM) | relative viability ([4]; first compound 1.265 µM) | relative viability ([4]; first compound 4 µM) |
| --- | --- | --- | --- | --- | --- | --- | --- | --- | --- | --- | --- | --- | --- | --- | --- | --- | --- | --- | --- | --- |
| 201T | 1.03 | 1.06 | 1.02 | 1.06 | 0.994 | 0.558 | 0.639 | 0.61 | 0.607 | 0.519 | 0.482 | 0.447 | 0.441 | 0.444 | 0.432 | 1.16 | 1.04 | 1.08 | 0.4 | 0.392 |
| A549 | 0.963 | 0.789 | 0.697 | 0.598 | 0.294 |  |  |  |  |  | 0.186 | 0.193 | 0.16 | 0.112 | 0.073 |  |  |  |  |  |
| A-427 | 0.91 | 1.13 | 0.894 | 0.976 | 0.799 | 0.76 | 0.638 | 0.634 | 0.799 | 0.635 | 0.428 | 0.385 | 0.32 | 0.285 | 0.383 | 0.622 | 0.447 | 0.231 | 0.195 | 0.197 |
| ABC-1 | 1.35 | 1.18 | 0.885 | 0.91 | 0.498 | 0.591 | 0.544 | 0.678 | 0.535 | 0.45 | 0.226 | 0.19 | 0.248 | 0.251 | 0.226 | 0.344 | 0.331 | 0.259 | 0.274 | 0.211 |
| BEN | 1.15 | 0.946 | 0.78 | 0.79 | 0.761 | 0.3 | 0.31 | 0.295 | 0.309 | 0.325 | 0.233 | 0.275 | 0.258 | 0.264 | 0.248 | 0.687 | 0.51 | 0.267 | 0.16 | 0.122 |
| Calu-6 | 0.916 | 0.924 | 0.763 | 0.639 | 0.338 |  |  |  |  |  |  |  |  |  |  | 1 | 0.557 | 0.219 | 0.152 | 0.158 |
| EBC-1 | 0.186 | 0.202 | 0.175 | 0.182 | 0.2 |  |  |  |  |  |  |  |  |  |  | 0.403 | 0.269 | 0.17 | 0.117 | 0.142 |
| HCC-44 | 0.752 | 0.822 | 0.742 | 0.751 | 0.668 |  |  |  |  |  | 0.344 | 0.191 | 0.194 | 0.187 | 0.144 | 0.774 | 0.642 | 0.281 | 0.208 | 0.19 |
| IA-LM | 0.772 | 0.818 | 0.767 | 0.694 | 0.486 |  |  |  |  |  |  |  |  |  |  | 0.381 | 0.202 | 0.0828 | 0.0567 | 0.0708 |
| LK-2 | 0.196 | 0.224 | 0.242 | 0.233 | 0.228 | 0.361 | 0.336 | 0.196 | 0.41 | 0.259 | 0.683 | 0.47 | 0.343 | 0.398 | 0.563 |  |  |  |  |  |
| NCI-H358 | 0.596 | 0.744 | 0.629 | 0.588 | 0.525 | 0.202 | 0.167 | 0.173 | 0.15 | 0.175 | 0.426 | 0.418 | 0.395 | 0.431 | 0.334 |  |  |  |  |  |
| NCI-H522 |  |  |  |  |  | 0.871 | 0.699 | 0.794 | 1.02 | 0.775 | 0.516 | 0.679 | 0.648 | 0.686 | 0.64 |  |  |  |  |  |
| NCI-H1299 | 0.932 | 0.91 | 0.88 | 0.885 | 0.835 |  |  |  |  |  |  |  |  |  |  | 1.01 | 0.803 | 0.402 | 0.269 | 0.225 |
| NCI-H1395 |  |  |  |  |  | 0.464 | 0.439 | 0.406 | 0.399 | 0.427 | 0.476 | 0.446 | 0.497 | 0.379 | 0.402 |  |  |  |  |  |
| NCI-H1623 |  |  |  |  |  | 0.529 | 0.567 | 0.602 | 0.482 | 0.5 | 0.586 | 0.609 | 0.586 | 0.534 | 0.513 |  |  |  |  |  |
| NCI-H1703 | 0.835 | 0.574 | 0.65 | 0.971 | 0.636 |  |  |  |  |  |  |  |  |  |  | 0.117 | 0.0992 | 0.138 | 0.111 | 0.123 |
| NCI-H1793 |  |  |  |  |  | 0.441 | 0.373 | 0.356 | 0.431 | 0.405 | 0.444 | 0.496 | 0.289 | 0.35 | 0.405 |  |  |  |  |  |
| NCI-H1944 | 1.05 | 1.17 | 1 | 0.916 | 0.788 | 0.236 | 0.213 | 0.229 | 0.24 | 0.297 | 0.217 | 0.193 | 0.186 | 0.181 | 0.181 |  |  |  |  |  |
| NCI-H2170 | 1.13 | 1.18 | 1.21 | 1.13 | 0.971 | 0.544 | 0.533 | 0.574 | 0.612 | 0.686 | 0.429 | 0.446 | 0.402 | 0.38 | 0.41 |  |  |  |  |  |
| NCI-H2342 |  |  |  |  |  | 0.358 | 0.288 | 0.312 | 0.314 | 0.315 | 0.759 | 0.709 | 0.616 | 0.638 | 0.615 |  |  |  |  |  |
| SK-MES-1 | 0.958 | 1.02 | 1.01 | 0.914 | 0.909 | 0.446 | 0.47 | 0.307 | 0.305 | 0.373 | 0.681 | 0.672 | 0.671 | 0.638 | 0.592 |  |  |  |  |  |
| SW 900 |  |  |  |  |  | 0.695 | 0.494 | 0.622 | 0.508 | 0.548 | 0.713 | 0.561 | 0.608 | 0.431 | 0.414 |  |  |  |  |  |
